Reference: patent publication US8551937B2, “Peptide having an extending action for half-life of object peptide in plasma” (priority 2008, dated 2013)
Where a SMILES comes first, the peptide text is derived from it. Bridges are numbered along the chain shown (N, C = ends). Where no end group is shown, it is not given here.

How the values were obtained:
in vivo [1] = conditions: male, SD, rat, iv, 10 nmol/kg
Procedure: The experiment was carried out using rats into which polyethylene tube (PE-50 manufactured by Clay Adams) was previously inserted into thigh artery under an anesthetized condition with Nembutal. As to a test system, male SD strain rats (Nippon Charles River) of 7 weeks age were used where one group comprised 3 rats. Native CNP-22 or chimeric CNP in a dose of 10 nmol/kg was administered into tail vein of the rat and the blood before the administration and until 60 minutes after the administration was collected by a polyethylene tube inserted into the thigh artery. To the collected blood were added EDTA (manufactured by Dojin Laboratories) and aprotinin (manufactured by Bayer) as a stabilizer and an anti-coagulant, respectively and the plasma was separated therefrom by centrifugal separation. CNP immunoreactivity concentration in plasma was measured by a competitive radioimmunoassay (RIA). At that time, a rabbit polyclonal antibody (#2) which specifically recognizes the ring partial structure of the native CNP-22 was used as an antibody and, as a labeled compound, ^125I-[Tyr^0] CNP was used.

in vivo [2] = conditions: rat, iv
Procedure: Changes in CNP immunoreactivity concentration in plasma when the native CNP-22 shown by SEQ ID No: 101 was administered either solely or jointly with neutral endo-peptidase (NEP) inhibitor and compared with changes in CNP immunoreactivity concentration in plasma when native CNP-53 (SEQ ID No: 159) and the chimeric CNP (D) (structure mentioned already) were intravenously administered.
The experiment was conducted using rats where polyethylene tube (PE-50, manufactured by Clay Adams) was previously inserted into thigh artery under the anesthetized condition with Nembutal. In the group where the native CNP-22 was administered either solely or jointly with an NEP inhibitor, the polyethylene tube (PE-10, manufactured by Clay Adams) was also inserted into the thigh vein. As to a test system, male SD rats (Nippon Charles River) of 7 weeks age were used where one group comprised three rats. As to the NEP inhibitor, DL-Thiorphan (manufactured by Sigma) was used and, during the period from 10 minutes before the initiation of administration of the native CNP-22 until 60 minutes after the initiation of the administration where collection of the blood finished, 5% mannitol (100 μL/min/body) or NEP inhibitor (30 μg/100 μL/min/body) was subjected to a constant-speed intravenous administration for 70 minutes using an Infusion Pump (CFV 2100, manufactured by Nippon Koden K. K.). Native CNP-22, native CNP-53 or chimeric CNP (D) was administered into tail vein in a dose of 20 nmol/kg each and blood over the time from before administration and 60 minutes after administration was collected from a polyethylene tube inserted into the thigh artery. To the collected blood were added EDTA (Dojin Laboratories) and aprotinin (manufactured by Bayer) as a stabilizer and an anti-coagulant, respectively and the plasma was separated by means of centrifugal separation. CNP immunoreactivity concentration in the plasma was measured by a competitive radioimmunoassay (RIA). At that time, a rabbit polyclonal antibody (#2) which specifically recognizes a ring part structure which is the common structure for native CNP-22 and native CNP-53 was used as an antibody while, as a labeling compound, ^125I-[Tyr^0] CNP-22 was used.

[3] = CNP immunoreactivity concentration in plasma after administration to rats (competitive RIA), pharmacokinetic parameters (Example 2); assay type: in vivo, rat; conditions: rat, plasma, 0.1 mg/kg, male rats, N = 3, mean ± SD; for half-life: read-out: T½
Procedure: Pharmacokinetic parameters were calculated from the resulting changes in immunoreactivity concentrations in plasma. At that time, WinNonlin Professional Ver. 4.0.1 (manufactured by Pharsight Corporation, U.S.A.) was used as the analytical software. Method for the calculation of each parameter is mentioned as follows.
Concentration at time 0 (C0; extrapolated value, ng/mL), area under the curve for concentration in plasma vs. time (AUC; ng.min/mL) and quenching half-life (T½; minute(s)) were calculated as follows. C0 was calculated as a value at time by means of extrapolation from the changes in immunoreactivity concentration in plasma at each blood collection period. AUC was calculated by a trapezoidal method using the immunoreactivity concentrations in plasma at all measuring points (t) and an extrapolated value until the infinitive time was determined. T½ was calculated by means of a least-squares method from the inclination of a straight line connecting several points in a disappearing phase of the immunoreactivity concentration in plasma. In the case of a subcutaneous administration, C0 was not determined but the maximum concentration in plasma (Cmax; ng/mL) and the time reaching the maximum concentration in plasma (Tmax; min) were determined.
Changes in CNP immunoreactivity concentration in plasma of native CNP-22 and chimeric peptide (chimeric CNP) where a half-life-extension peptide was added to CNP were investigated.
The experiment was conducted in the same manner as in Example 1 that rats where polyethylene tube was previously inserted into thigh artery were used under an anesthetizing condition with Nembutal and male SD strain rats of 7 weeks age (purchased from Nippon Charles River) were used where one group comprised 3 rats. […] At that time, a rabbit polyclonal antibody (#2) recognizing a ring part of native CNP-22 was used as an antibody and ^125I-[Tyr^0] CNP was used as a labeling compound. Pharmacokinetic analysis was carried out by the same method as in Example 1.

[4] = biological target: T1, neutral endopeptidase (NEP) (Homo sapiens, UniProt P08473); assay: Resistance to peptidase: stability to hNEP (HPLC residual rate); assay type: in vitro ADME; conditions: human, isolated enzyme neprilysin, pH 6.5
T1 construct: purchased R&D Systems, Inc., U.S.A
Procedure: The experiment was conducted in N=2 for each sample. Native CNP-22, chimeric CNP (A, B) (structure mentioned already; final concentration: 0.5 μg/mL) and 100 μL of reaction solution (medium: 20 mM MES, pH 6.5) of human type recombinant neutral endopeptidase (hNEP, manufactured by R&D Systems, Inc., U.S.A.) were prepared. […] Distilled water (100 μL) was added to the sample after boiling followed by well mixing and 50 μL thereof was analyzed in a water-acetonitrile system using a high-performance liquid chromatography system LC-10A (manufactured by Shimadzu). The analytical data were analyzed by a Chromato-Pack (CRA-10A, manufactured by Shimadzu) and area of the peak zone of unchanged substance was calculated. The area of average zone of unchanged substance when made to react at 37° C. was divided by the area of average zone of the boiled sample to calculate the residual rate of the unchanged substance after 1 hour.

T1 sequence (P08473 whole entry): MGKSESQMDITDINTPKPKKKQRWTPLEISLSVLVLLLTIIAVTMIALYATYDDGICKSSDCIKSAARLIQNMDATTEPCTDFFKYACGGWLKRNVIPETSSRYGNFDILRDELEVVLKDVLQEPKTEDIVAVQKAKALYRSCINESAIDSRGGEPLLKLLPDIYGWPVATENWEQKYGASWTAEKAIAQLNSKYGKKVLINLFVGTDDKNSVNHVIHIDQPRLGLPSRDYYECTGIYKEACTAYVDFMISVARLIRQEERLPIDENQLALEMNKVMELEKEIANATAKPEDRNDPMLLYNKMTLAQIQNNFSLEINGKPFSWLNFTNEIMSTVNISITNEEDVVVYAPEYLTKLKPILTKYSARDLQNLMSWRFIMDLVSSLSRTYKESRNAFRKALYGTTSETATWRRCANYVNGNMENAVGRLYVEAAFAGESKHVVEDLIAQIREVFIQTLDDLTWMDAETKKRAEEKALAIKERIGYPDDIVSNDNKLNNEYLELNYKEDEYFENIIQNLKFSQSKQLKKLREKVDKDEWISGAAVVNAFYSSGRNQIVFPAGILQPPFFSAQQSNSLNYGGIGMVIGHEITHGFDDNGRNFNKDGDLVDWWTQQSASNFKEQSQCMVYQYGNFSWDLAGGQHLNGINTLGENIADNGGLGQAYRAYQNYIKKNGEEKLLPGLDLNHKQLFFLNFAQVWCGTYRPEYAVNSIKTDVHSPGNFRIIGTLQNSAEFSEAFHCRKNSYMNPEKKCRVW

Question: Which results are given for `CC[C@H](C)[C@@H]1NC(=O)[C@H](CCCNC(=N)N)NC(=O)[C@H](CC(=O)O)NC(=O)[C@H](CC(C)C)NC(=O)[C@H](CCCCN)NC(=O)[C@H](CC(C)C)NC(=O)CNC(=O)[C@H](Cc2ccccc2)NC(=O)[C@@H](NC(=O)CNC(=O)[C@H](CCCCN)NC(=O)[C@H](CO)NC(=O)[C@H](CC(C)C)NC(=O)CN)CSSC[C@@H](C(=O)N[C@H](C(=O)N[C@@H](CCC(N)=O)C(=O)N[C@@H](CCC(N)=O)C(=O)N[C@@H](CCCNC(=N)N)C(=O)N[C@@H](CCCCN)C(=O)N[C@@H](CCC(=O)O)C(=O)N[C@@H](CO)C(=O)N[C@@H](CCCCN)C(=O)N[C@@H](CCCCN)C(=O)N2CCC[C@H]2C(=O)N2CCC[C@H]2C(=O)N[C@@H](C)C(=O)N[C@@H](CCCCN)C(=O)N[C@@H](CC(C)C)C(=O)N[C@@H](CCC(N)=O)C(=O)N2CCC[C@H]2C(=O)N[C@@H](CCCNC(=N)N)C(=O)O)C(C)C)NC(=O)CNC(=O)[C@H](CC(C)C)NC(=O)CNC(=O)[C@H](CO)NC(=O)[C@H](CCSC)NC(=O)[C@H](CO)NC(=O)CNC1=O` [Chimeric CNP (D)] (H-GLSKGCFGLKLDRIGSMSGLGCVQQRKESKKPPAKLQPR-OH; disulfide 6-22; N-terminus and C-terminus assumed)?
Answer: half-life (in vivo [1]): 20.3 min; half-life compared with native CNP-22, native CNP-22 together with NEP inhibitor and native CNP-53 (in vivo [2]): longer half-life

Question: Which AUC(0-inf) ([3]; sc, subcutaneous) does the source give for `CC[C@H](C)[C@@H]1NC(=O)[C@H](CCCNC(=N)N)NC(=O)[C@H](CC(=O)O)NC(=O)[C@H](CC(C)C)NC(=O)[C@H](CCCCN)NC(=O)[C@H](CC(C)C)NC(=O)CNC(=O)[C@H](Cc2ccccc2)NC(=O)[C@@H](NC(=O)[C@@H](NC(=O)[C@H](CCC(N)=O)NC(=O)[C@H](CCC(N)=O)NC(=O)[C@H](CCCNC(=N)N)NC(=O)[C@H](CCCCN)NC(=O)[C@H](CCC(=O)O)NC(=O)[C@H](CO)NC(=O)[C@H](CCCCN)NC(=O)[C@H](CCCCN)NC(=O)[C@@H]2CCCN2C(=O)[C@@H]2CCCN2C(=O)[C@H](C)NC(=O)[C@H](CCCCN)NC(=O)[C@H](CC(C)C)NC(=O)[C@H](CCC(N)=O)NC(=O)[C@@H]2CCCN2C(=O)[C@@H](N)CCCNC(=N)N)C(C)C)CSSC[C@@H](C(=O)O)NC(=O)CNC(=O)[C@H](CC(C)C)NC(=O)CNC(=O)[C@H](CO)NC(=O)[C@H](CCSC)NC(=O)[C@H](CO)NC(=O)CNC1=O` [Chimeric CNP (A)] (H-RPQLKAPPKKSEKRQQVCFGLKLDRIGSMSGLGC-OH; disulfide 18-34; N-terminus and C-terminus assumed) here?
Answer: 24.9 ng·h/mL

Question: What about the Cmax ([3]; sc, subcutaneous) of the same molecule?
Answer: 27.9 ± 2.7 ng/mL

Question: What about the Tmax ([3]; sc, subcutaneous) of the same molecule?
Answer: 13.3 min

Question: What about the half-life ([3]; sc, subcutaneous) of the same molecule?
Answer: 20.7 ± 7.5 min

Question: What about the AUC(0-inf) ([3]; intravenous) of the same molecule?
Answer: 107 ng·h/mL

Question: And the C0 ([3]; intravenous, extrapolated value)?
Answer: 1030 ± 358 ng/mL

Question: And the half-life ([3]; intravenous)?
Answer: 21.7 ± 6.1 min

Question: What about the remaining at 1 h, 0.5 μg/mL [4] of the same molecule?
Answer: 84.3%

Question: Which half-life (in vivo [2]; male, SD) does the source give for `CC[C@H](C)[C@@H]1NC(=O)[C@H](CCCNC(=N)N)NC(=O)[C@H](CC(=O)O)NC(=O)[C@H](CC(C)C)NC(=O)[C@H](CCCCN)NC(=O)[C@H](CC(C)C)NC(=O)CNC(=O)[C@H](Cc2ccccc2)NC(=O)[C@@H](NC(=O)CNC(=O)[C@H](CCCCN)NC(=O)[C@H](CO)NC(=O)[C@H](CC(C)C)NC(=O)CNC(=O)[C@H](CCCCN)NC(=O)[C@H](CCCCN)NC(=O)[C@H](CC(N)=O)NC(=O)[C@H](C)NC(=O)CNC(=O)[C@H](CCCCN)NC(=O)[C@H](Cc2ccc(O)cc2)NC(=O)[C@H](CCCCN)NC(=O)[C@H](CCCNC(=N)N)NC(=O)[C@H](C)NC(=O)[C@H](CC(N)=O)NC(=O)[C@@H]2CCCN2C(=O)[C@H](Cc2c[nH]cn2)NC(=O)[C@H](CCC(=O)O)NC(=O)[C@H](CCC(N)=O)NC(=O)[C@H](CC(C)C)NC(=O)[C@H](CC(C)C)NC(=O)[C@H](CCCNC(=N)N)NC(=O)[C@H](C)NC(=O)[C@H](Cc2c[nH]c3ccccc23)NC(=O)[C@H](C)NC(=O)[C@H](C)NC(=O)[C@H](CCCNC(=N)N)NC(=O)[C@H](CO)NC(=O)[C@H](CCCCN)NC(=O)[C@@H](NC(=O)[C@H](CC(=O)O)NC(=O)[C@@H](NC(=O)[C@H](CCCNC(=N)N)NC(=O)[C@H](CC(C)C)NC(=O)[C@@H](N)CC(=O)O)C(C)C)[C@@H](C)O)CSSC[C@@H](C(=O)O)NC(=O)CNC(=O)[C@H](CC(C)C)NC(=O)CNC(=O)[C@H](CO)NC(=O)[C@H](CCSC)NC(=O)[C@H](CO)NC(=O)CNC1=O` [Native CNP-53] here?
Answer: 15.7 min

Question: Which half-life (in vivo [1]) does the source give for `CC[C@H](C)[C@@H]1NC(=O)[C@H](CCCNC(=N)N)NC(=O)[C@H](CC(=O)O)NC(=O)[C@H](CC(C)C)NC(=O)[C@H](CCCCN)NC(=O)[C@H](CC(C)C)NC(=O)CNC(=O)[C@H](Cc2ccccc2)NC(=O)[C@@H](NC(=O)[C@@H](NC(=O)[C@H](CCC(N)=O)NC(=O)[C@H](CCC(N)=O)NC(=O)[C@H](CCCNC(=N)N)NC(=O)[C@H](CCCCN)NC(=O)[C@H](CCC(=O)O)NC(=O)[C@H](CO)NC(=O)[C@H](CCCCN)NC(=O)[C@H](CCCCN)NC(=O)[C@@H]2CCCN2C(=O)[C@@H]2CCCN2C(=O)[C@H](C)NC(=O)[C@H](CCCCN)NC(=O)[C@H](CC(C)C)NC(=O)[C@H](CCC(N)=O)NC(=O)[C@@H]2CCCN2C(=O)[C@@H](N)CCCNC(=N)N)C(C)C)CSSC[C@@H](C(=O)O)NC(=O)CNC(=O)[C@H](CC(C)C)NC(=O)CNC(=O)[C@H](CO)NC(=O)[C@H](CCSC)NC(=O)[C@H](CO)NC(=O)CNC1=O` [Chimeric CNP (H)] (H-RPQLKAPPKKSEKRQQVCFGLKLDRIGSMSGLGC-OH; disulfide 18-34; N-terminus and C-terminus assumed) here?
Answer: 14.9 min

Question: With “VQQRKESKKPPAKLQPRCFGLKLDRIGSMSGLGCVQQRKESKKPPAKLQPR (disulfide 18-34) [Chimeric CNP (E)]” as the molecule, how does the half-life (in vivo [1]) read?
Answer: 18.4 min

Question: Which half-life (in vivo [1]) does the source give for “RPQLKAPPKKSEKRQQVCFGLKLDRIGSMSGLGCVQQRKESKKPPAKLQPR (disulfide 18-34) [Chimeric CNP (F)]” here?
Answer: 17.4 min
